Publication PMC6132687, “Stem cells are the most sensitive screening tool to identify toxicity of GATA4-targeted novel small-molecule compounds” (Archives of Toxicology, 2018)

Legend:
NRVCs = test system: NRVCs; parameters: method as in Välimäki et al. [2017]; conditions: concentrations up to 50 µM; ref Välimäki et al. [2017]; cited from earlier work
[1] = test system: GATA4–NKX2-5 transcriptional synergy; parameters: method as in Välimäki et al. [2017]; conditions: ref Välimäki et al. [2017]; cited from earlier work
[2] = test system: stretch-induced cardiomyocyte hypertrophy; parameters: method as in Välimäki et al. [2017]; conditions: ref Välimäki et al. [2017]; cited from earlier work
hiPSC-CMs = experiment: MTT assay in hiPSC-CMs; type: cell-based, human; conditions: 24 h
Protocol: (§1) The cells were exposed to the test compounds for 24 h and cytotoxicity was quantified with MTT and LDH assays as described previously (Talman et al. [2011]). For the determination of cell membrane integrity, 50 µl of medium from each well was transferred onto a new 96-well plate followed by addition of 50 µl of substrate solution containing 1.3 mM β-nicotinamide adenine dinucleotide, 660 µM iodonitrotetrazolium, 54 mM L(+)-lactic acid, 280 µM phenazine methosulphate and 0.2 M Tris–HCl (pH 8.0). After a 30-min incubation, the reaction was stopped by adding 50 µl of 1 M acetic acid to each well and absorbance was measured at 490 nm using Victor2 plate reader (PerkinElmer, Turku, Finland). Spontaneous LDH release was measured from untreated cells, maximal LDH release from cells lysed with 0.9% Triton X-100 and background absorbance was measured from wells without cells. After background extraction, cytotoxicity was calculated as follows: cytotoxicity (%) = [(sample − spontaneous LDH release)/(maximal LDH release − spontaneous LDH release)] × 100. For quantification of metabolic activity, 3-(4,5-dimethylthiazol-2-yl)-2,5-diphenyltetrazolium bromide (MTT) was added to the cells at a final concentration of 0.5 mg/ml followed by 2 h incubation in cell culture conditions. […] Absorbance was measured at 550 nm and absorbance at 650 nm was subtracted as background. […]

MEFs = experiment: MTT assay in MEFs; type: cell-based, mouse; conditions: 24 h, 30 µM, not statistically significant
Protocol: as §1

For `CCN(CC)c1ccc(NC(=O)c2c(-c3ccccc3)noc2C)cc1` [3i-1000], the “toxicity in NRVCs” value (NRVCs) is given as “no toxicity”, the “GATA4-induced synergistic transactivation of a promoter sequence containing NKX2-5 binding sites” value [1] is given as “inhibits” and the stretch-induced cardiomyocyte hypertrophy [2] is given as “attenuates”.

With `CCN(CC)c1ccc(NC(=O)c2c(C)noc2-c2cc(C)on2)cc1` [3i-1047] the “increase in hiPSC-CM metabolic activity” value (hiPSC-CMs) was 51%.

For `CCC(=O)N(Cc1ccc(N(CC)CC)cc1)c1c(-c2ccccc2)noc1C` [3i-1120], the “toxicity in MEFs” value (MEFs) was “modest toxicity”.
